Source: patent US9625448B2, “Double caged GABA compounds, bis-CNB-GABA” (The Trustees of Princeton University, priority 2014, dated 2017)

How the values were obtained:
[1] = Quantum yield of photolysis; assay type: physicochemical; conditions: 254 nm light
Procedure: Quantum yield was a more difficult characteristic to determine. Most published routes of determining quantum yield rely on exposing the compound to a known amount of light and calculating the percent conversion of caged compound to substrate. However, this often requires laser sources and equipment beyond the scope of available facilities. Therefore, it was necessary to develop a way to assess quantum yield with a more practical method. As an alternative, quantum yield was determined by exposing a compound to light alongside a caged compound of known quantum yield. The percent conversion to product of both can be determined, and quantum yield of the unknown caged compound can be calculated using the known quantum yield of the standard.
This method was employed using single-caged CNB-GABA, with a quantum yield of 0.14 (Matsuzaki et al., 2010 Nature Chemical Biology, 6, 255-257, which is incorporated herein by reference as if fully set forth). Referring to this figure, GABA backbone is shown in light gray.
Equimolar amounts of single-caged GABA and bis-CNB-GABA were stirred in separate cuvettes in pH 7.0 phosphate buffer solution and exposed to 254 nm light for 16.5 minutes. An internal standard (1,2-dimethoxyethane) of known amount was then added to each solution, and the moles of GABA released from each compound was determined by ^1HNMR. The peaks corresponding to GABA as well as those from the internal standard were then identified and integrated. From this, moles of GABA and percent conversion were calculated for both bis-CNB-GABA and mono-CNB-GABA. FIG. 34 illustrates NMR data used to determine quantum yield. Referring to FIG. 34, the […] on the top illustrates bis-CNB-GABA before light exposure. Arrows denote methylene peaks of bis-CNB-GABA. Integrated peaks in each spectrum correspond to di-methoxyethane, used as an internal standard. […]
Quantum yield was determined by uncaging bis-CNB-GABA alongside a caged compound of known quantum yield (mono-CNB-GABA, QY=0.16, from Invitrogen). […]

physchem = assay type: physicochemical; conditions: pH 7, aqueous buffer, thermodynamic from solid
Description: Solubility data was important to obtain before attempting to use the compound in neural tissue. This was accomplished by dissolving a known amount of bis-CNB-GABA in pH 7.0 phosphate buffer solution.

[2] = at 24 hr; prior report; cited from earlier work

| Compound | quantum yield ([1]; pH 7.0 phosphate buffer, relative to CNB-GABA (0.14)) | quantum yield at the N-position ([1]; relative to mono-O-CNB-GABA) | quantum yield at the O-position ([1]; relative to mono-O-CNB-GABA) | solubility (physchem) [mM] | conversion in the dark [2] [%] |
| --- | --- | --- | --- | --- | --- |
| O=C(CCCNC(C(=O)O)c1ccccc1[N+](=O)[O-])OC(C(=O)O)c1ccccc1[N+](=O)[O-] (centres unmarked) [bis-CNB-GABA, 2-((4-(Carboxy(2-nitrophenyl)methoxy)-4-oxobutyl)amino)-2-(2-nitrophenyl)acetic acid] | 0.07 | 0.032 | 0.15 | ≤ 17 |  |
| NCCCC(=O)OC(C(=O)O)c1ccccc1[N+](=O)[O-] (centres unmarked) [mono-CNB-GABA] |  |  |  |  | < 1 |
